According to ChEMBL document CHEMBL2346598, “Synthesis and pharmacological characterization of 2-(acylamino)thiophene derivatives as metabolically stable, orally effective, positive allosteric modulators of the GABAB receptor” (J Med Chem, 2013):
The source made the active and inactive calls. The calls are words filed in the database; no cut-off is given here.

What was measured:
Type in all cases: functional, cell membranes
Settings in all cases: Membrane
Rattus norvegicus [1] = organism: Rattus norvegicus; assay: Positive allosteric modulation of GABAB receptor in rat cortical membranes assessed as potentiation of GABA-induced [35S]GTPgammaS binding after 30 mins by liquid scintillation counting analysis
Rattus norvegicus [2] = organism: Rattus norvegicus; assay: Positive allosteric modulation of GABAB receptor in rat cortical membranes assessed as stimulation of [35S]GTPgammaS binding up to 100 uM after 30 mins by liquid scintillation counting analysis
Rattus norvegicus [3] = organism: Rattus norvegicus; assay: Positive allosteric modulation of GABAB receptor in rat cortical membranes assessed as potentiation of GABA-induced [35S]GTPgammaS binding at 25 uM after 30 mins by liquid scintillation counting analysis relative to GABA
Rattus norvegicus [4] = organism: Rattus norvegicus; assay: Positive allosteric modulation of GABAB receptor in rat cortical membranes assessed as potentiation of GABA-induced [35S]GTPgammaS binding at 2.5 uM after 30 mins by liquid scintillation counting analysis relative to GABA

| Activity (Rattus norvegicus [1]) | Activity (Rattus norvegicus [2]) | Activity (Rattus norvegicus [3]) [%] | Activity (Rattus norvegicus [4]) [%] | Structure (SMILES) |
| --- | --- | --- | --- | --- |
| inactive | inactive | – | – | CCc1c(C)sc(NC(=O)C2CC2)c1C(=O)OC |
| inactive | inactive | – | – | CCc1c(C)sc(NC(=O)Cc2ccccc2)c1C(=O)OC |
| inactive | inactive | – | – | COC(=O)c1ccsc1NC(=O)c1ccccc1 |
| inactive | inactive | – | – | CCc1c(C)sc(NC(=O)C(C)(C)C)c1C(=O)OC |
| inactive | inactive | – | – | CCc1c(C)sc(N(C)C(=O)c2ccc(Cl)cc2)c1C(=O)OC |
| inactive | inactive | – | – | CCc1c(C)sc(NS(=O)(=O)c2ccc(C)cc2)c1C(=O)OC |
| inactive | inactive | – | – | CCc1c(C)sc(NC(=O)c2ccc(C)cc2)c1C(=O)OC(C)(C)C |
| inactive | inactive | – | – | CCc1c(C)sc(NS(=O)(=O)C2CCCCC2)c1C(=O)OC |
| inactive | inactive | 11 | 4 | CCc1c(C)sc(NC(=O)c2cccc(Cl)c2)c1C(=O)OC |
| inactive | inactive | – | – | CCc1c(C)sc(NC(=O)c2ccc(Cl)cc2)c1C(=O)OC(C)(C)C |
| inactive | inactive | – | – | CCc1c(C)sc(NC(=O)c2ccc(-c3ccccc3)cc2)c1C(=O)OC |
| inactive | inactive | 8.2 | 3.9 | CCc1c(C)sc(NC(=O)Oc2ccccc2)c1C(=O)OC |
| inactive | inactive | – | – | CCc1c(C)sc(NC(=O)c2ccc(Br)cc2)c1C(=O)OC |
| inactive | inactive | 9 | -4.1 | COC(=O)c1c(NC(=O)c2ccc(OC)c(OC)c2)sc2c1CCCC2 |
| inactive | inactive | – | – | CCc1c(C)sc(NC(=O)c2ccc(OC)cc2)c1C(=O)OC |
| inactive | inactive | – | – | CCc1c(C)sc(NC(=O)c2ccc(-c3ccc(C)cc3)cc2)c1C(=O)OC |
| inactive | inactive | – | – | CCCOC(=O)c1c(NC(=O)c2ccc(C)cc2)sc(C)c1CC |
| inactive | inactive | – | – | CCc1c(C)sc(NC(=O)c2ccccc2Cl)c1C(=O)OC |
